The structures appear in SMILES notation.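 Method: 48-hour compound exposure of cells in 96-well plates, five concentrations, linear interpolation of endpoints. GI50 is the concentration that inhibits growth by half.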 Active and inactive are the calls of the source. Rule as the data show it: active = GI50 up to about 1.1 µM and inactive = higher. Where only a bound is given, the exact number is not on record here.

Some test systems named below: 786-0; A549; CAKI-1; CCRF-CEM; COLO 205; EKVX; HOP-62; LOX IMVI; M14; MCF7; MDA-N; NCI-H226; NCI-H23; OVCAR-4; PC-3; SF-295; SW-620; TK-10; UACC-62; UO-31.
Test in all cases: NCI tumour cell line growth inhibition, 48 h

With `CC(=O)O[C@H]1[C@@H](N2CCN(C)CC2)C[C@H]2[C@@H]3CC=C4C[C@@H](N5CCCC5)CC[C@]4(C)[C@H]3CC[C@@]21C`, the GI50 in the experiment on 786-0 was 25.8 µM (inactive); with A549, 37.7 µM (inactive); with CAKI-1, 49.4 µM (inactive); in the experiment on CCRF-CEM, 30.4 µM (inactive); in the experiment with COLO 205 it was 3.85 µM (inactive); in the experiment on EKVX, 74.5 µM (inactive). Also, the GI50 in the experiment on HOP-62 was 46.5 µM (inactive); with LOX IMVI, 17.4 µM (inactive); with M14, 17.8 µM (inactive); in the experiment with MCF7 it was > 100 µM (inactive); in the experiment on MDA-N it was 26.1 µM (inactive); in the experiment on NCI-H226 it was > 100 µM (inactive). Moreover, the GI50 was > 100 µM (inactive) in the experiment on NCI-H23; > 100 µM (inactive) in the experiment with OVCAR-4; 40.9 µM (inactive) in the experiment with PC-3; 21.7 µM (inactive) in the experiment on SF-295; 44.9 µM (inactive) with SW-620; > 100 µM (inactive) with TK-10. In addition, the figures for the GI50 in the experiment on UACC-62 and with UO-31 were 59.4 µM (inactive) and 34.9 µM (inactive), respectively.

With `CC(C)(C)OC(=O)CN1CCN(CC(=O)N2CCN(C(=O)OCc3ccccc3)CC2)CCN(CC(=O)OC(C)(C)C)CCN(CC(=O)N2CCN(C(=O)OCc3ccccc3)CC2)CC1`, the GI50 in the experiment on 786-0 was 2.21 µM (inactive); in the experiment with A549, 3.27 µM (inactive); in the experiment with CAKI-1, 10.1 µM (inactive); with CCRF-CEM it was 1.41 µM (inactive); with COLO 205 it was 1.15 µM (inactive); with EKVX, 10.5 µM (inactive). Moreover, the GI50 in the experiment with HOP-62 was 3.7 µM (inactive); in the experiment with LOX IMVI, 1.25 µM (inactive); in the experiment on M14, 3.21 µM (inactive); with MCF7 it was 2.35 µM (inactive); in the experiment on MDA-N, 2.18 µM (inactive); with NCI-H226, 3.84 µM (inactive). The GI50 with NCI-H23 is 2.6 µM (inactive); in the experiment with OVCAR-4, 2.73 µM (inactive); with PC-3, 2.51 µM (inactive); in the experiment on SF-295, 3.35 µM (inactive); in the experiment on SW-620 it was 1.67 µM (inactive); in the experiment on TK-10, 5.92 µM (inactive). For the same compound, the GI50 in the experiment with UACC-62 is 2.67 µM (inactive); in the experiment on UO-31, 12.7 µM (inactive).

`CC1CN(c2cc3c(cc2F)c(=O)c(C(=O)O)cn3-c2ccc(F)cn2)CC(C)N1` (stereo not given): the GI50 in the experiment on 786-0, with A549, in the experiment with CAKI-1, with CCRF-CEM, in the experiment on COLO 205 and with EKVX was > 100 µM (inactive) throughout. The GI50 with HOP-62, in the experiment on LOX IMVI, in the experiment on M14, with MCF7, in the experiment on MDA-N and with NCI-H226 was > 100 µM (inactive) each time. For the same compound, the GI50 in the experiment with NCI-H23, in the experiment with OVCAR-4, in the experiment with PC-3, with SF-295, in the experiment with SW-620 and in the experiment with TK-10 was > 100 µM (inactive) in each case. For the same compound, the GI50 in the experiment on UACC-62 and with UO-31 was > 100 µM (inactive) throughout.

For `O=C1c2c(O)ccc(O)c2C(=O)c2c(NCCNC(=O)C(O)C(O)C(O)C(O)CO)ccc(NCCNC(=O)C(O)C(O)C(O)C(O)CO)c21` (stereo not given), the GI50 is < 0.01 µM (active) with 786-0; < 0.01 µM (active) in the experiment on A549; < 0.01 µM (active) with CAKI-1; 0.0316 µM (active) in the experiment with CCRF-CEM; < 0.01 µM (active) with COLO 205; 0.165 µM (active) in the experiment with EKVX. The GI50 was 0.011 µM (active) in the experiment with HOP-62; 0.0134 µM (active) with LOX IMVI; < 0.0195 µM (active) in the experiment with M14; < 0.01 µM (active) in the experiment with MCF7; < 0.0494 µM (active) in the experiment on MDA-N; < 0.0126 µM (active) with NCI-H226. Also, the GI50 in the experiment with NCI-H23 was 0.0178 µM (active); with OVCAR-4, 0.18 µM (active); in the experiment on PC-3, 0.131 µM (active); with SF-295, < 0.01 µM (active); in the experiment with SW-620, 0.0213 µM (active); with TK-10 it was 0.161 µM (active). Also, the GI50 with UACC-62 was 0.0154 µM (active); with UO-31 it was 0.0186 µM (active).

Source of the values: ChEMBL document CHEMBL1201862, “PubChem BioAssay data set” (2004).
